Key:
phospho-473Ser Akt = assay: Western blot of Akt and phospho-Akt in PC-3 cells; type: cell-based, human; details: 1 μM
Procedure: Immunoblotting. The general procedure for the Western blot analysis of Akt and phospho-Akt is described as follows. Cells were washed in PBS, resuspended in SDS sample buffer sonicated by an ultrasonic sonicator for 5 sec, and boiled for 5 min. After brief centrifugation, equivalent protein concentrations from the soluble fractions were resolved in 10% SDS-polyacrylamide gels on a Minigel apparatus, and transferred to a nitrocellulose membrane using a semi-dry transfer cell. The transblotted membrane was washed three times with TBS containing 0.05% Tween 20 (TBST). After blocking with TBST containing 5% nonfat milk for 60 min., the membrane was incubated with the primary antibody at 1:1,000 dilution in TBST-5% low fat milk at 4° C. for 12 h, and was then washed three times with TBST. The membrane was probed with goat anti-rabbit IgG-HRP conjugates (1:1,000) for 1 h at room temperature, and was washed with TBST three times. The immunoblots were visualized by enhanced chemiluminescence.

SK-MEL-5 = assay: NCI DTP cell line screen (SRB), Melanoma; type: cell-based, human; details: for TGI: in M (unit assumed)
Procedure: (§1) Screening of compounds 70 and 71 against several cancer cell lines The human tumor cell lines of the cancer screening panel are grown in RPMI 1640 medium containing 5% fetal bovine serum and 2 mM L-glutamine. For a typical screening experiment, cells are inoculated into 96 well microtiter plates in 100 μL at plating densities ranging from 5,000 to 40,000 cells/well depending on the doubling time of individual cell lines. After cell inoculation, the microtiter plates are incubated at 37° C., 5% CO2, 95% air and 100% relative humidity for 24 h prior to addition of experimental drugs.
(§2) After 24 h, two plates of each cell line are fixed in situ with TCA, to represent a measurement of the cell population for each cell line at the time of drug addition (Tz). Experimental drugs are solubilized in dimethyl sulfoxide at 400-fold the desired final maximum test concentration and stored frozen prior to use. At the time of drug addition, an aliquot of frozen concentrate is thawed and diluted to twice the desired final maximum test concentration with complete medium containing 50 μg/ml gentamicin. Additional four, 10-fold or ½ log serial dilutions are made to provide a total of five drug concentrations plus control. Aliquots of 100 μl of these different drug dilutions are added to the appropriate microtiter wells already containing 100 μl of medium, resulting in the required final drug concentrations.
(§3) Following drug addition, the plates are incubated for an additional 48 h at 37° C., 5% CO2, 95% air, and 100% relative humidity. For adherent cells, the assay is terminated by the addition of cold TCA. Cells are fixed in situ by the gentle addition of 50 μl of cold 50% (w/v) TCA (final concentration, 10% TCA) and incubated for 60 minutes at 4° C. The supernatant is discarded, and the plates are washed five times with tap water and air dried. Sulforhodamine B (SRB) solution (100 μl) at 0.4% (w/v) in 1% acetic acid is added to each well, and plates are incubated for 10 minutes at room temperature. After staining, unbound dye is removed by washing five times with 1% acetic acid and the plates are air dried. Bound stain is subsequently solubilized with 10 mM trizma base, and the absorbance is read on an automated plate reader at a wavelength of 515 nm. For suspension cells, the methodology is the same except that the assay is terminated by fixing settled cells at the bottom of the wells by gently adding 50 μl of 80% TCA (final concentration, 16% TCA). Using the seven absorbance measurements [time zero, (Tz), control growth, (C), and test growth in the presence of drug at the five concentration levels (Ti)], the percentage growth is calculated at each of the drug concentrations levels. Percentage growth inhibition is calculated as: [(Ti−Tz)/(C−Tz)]×100 for concentrations for which Ti>/=Tz [(Ti−Tz)/Tz]×100 for concentrations for which Ti<Tz
(§4) Three dose response parameters are calculated for each experimental agent. […] The drug concentration resulting in total growth inhibition (TGI) is calculated from Ti=Tz. […] Values are calculated for each of these three parameters if the level of activity is reached; however, if the effect is not reached or is exceeded, the value for that parameter is expressed as greater or less than the maximum or minimum concentration tested.
(§5) The methods described were used to test compounds 70 and 71 on a panel of sixty cell lines under a screening service provided by the Developmental Therapeutics Program at the National Institutes of Health. Shown in FIG. 1C are 1, RPMI-8226 leukemia cells; 2; NCI-H322M non-small cell lung cancer cells; 3, HT29 colon cancer cells; 4, U251 CNS cancer cells; 5, SK-MEL-28 melanoma cancer cells; 6, SK-OV-3 ovarian cancer cells; 7, RXF 393 renal cancer cells; 8, PC-3 prostate cancer cells; 9, MDA-MB-231 breast cancer cells.

COLO 205 = assay: NCI DTP cell line screen (SRB), Colon Cancer; type: cell-based, human
Procedure: as §1, §2, §3, §4, §5

SK-MEL-2 = assay: NCI DTP cell line screen (SRB), Melanoma; type: cell-based
Procedure: as §1, §2, §3, §4, §5

M14 = assay: NCI DTP cell line screen (SRB), Melanoma; type: cell-based
Procedure: as §1, §2, §3, §4, §5

LOX IMVI = assay: NCI DTP cell line screen (SRB), Melanoma; type: cell-based
Procedure: as §1, §2, §3, §4, §5

SK-MEL-28 = assay: NCI DTP cell line screen (SRB), Melanoma; type: cell-based
Procedure: as §1, §2, §3, §4, §5

## NCC(=O)Nc1ccc(-n2nc(C(F)(F)F)cc2-c2ccc3c(ccc4ccccc43)c2)cc1 [Compound 70, 2-Amino-N-{4-[5-(2-phenanthrenyl)-3-(trifluoromethyl)-1H-pyrazol-1-yl]-phenyl}-acetamide]
phospho-473Ser Akt
  phospho-Akt level: substantial decrease in the phospho-Akt level
SK-MEL-5; Log10 Concentration −4.0
  Percent Growth: −34%
SK-MEL-5; Log10 Concentration −5.0
  Percent Growth: −75%
SK-MEL-5; Log10 Concentration −6.0
  Percent Growth: 69%
SK-MEL-5; Log10 Concentration −7.0
  Percent Growth: 88%
SK-MEL-5; Log10 Concentration −8.0
  Percent Growth: 91%
SK-MEL-5
  TGI: 3.02E−06
COLO 205; Log10 Concentration −4.0
  Percent Growth: 1%
COLO 205; Log10 Concentration −5.0
  Percent Growth: −53%
COLO 205; Log10 Concentration −6.0
  Percent Growth: 58%
COLO 205; Log10 Concentration −7.0
  Percent Growth: 87%
COLO 205; Log10 Concentration −8.0
  Percent Growth: 89%
SK-MEL-2
  TGI: 5.40E−06
SK-MEL-2; Log10 Concentration −4.0
  Percent Growth: −28%
SK-MEL-2; Log10 Concentration −5.0
  Percent Growth: −37%
SK-MEL-2; Log10 Concentration −6.0
  Percent Growth: 100%
SK-MEL-2; Log10 Concentration −7.0
  Percent Growth: 117%
SK-MEL-2; Log10 Concentration −8.0
  Percent Growth: 114%
M14
  TGI: 5.37E−06
M14; Log10 Concentration −4.0
  Percent Growth: −19%
M14; Log10 Concentration −5.0
  Percent Growth: −33%
M14; Log10 Concentration −6.0
  Percent Growth: 90%
M14; Log10 Concentration −7.0
  Percent Growth: 98%
M14; Log10 Concentration −8.0
  Percent Growth: 98%
LOX IMVI
  TGI: 3.07E−06
LOX IMVI; Log10 Concentration −5.0
  Percent Growth: −50%
LOX IMVI; Log10 Concentration −6.0
  Percent Growth: 48%
LOX IMVI; Log10 Concentration −7.0
  Percent Growth: 76%
LOX IMVI; Log10 Concentration −8.0
  Percent Growth: 105%
SK-MEL-28
  TGI: 2.64E−06
SK-MEL-28; Log10 Concentration −4.0
  Percent Growth: −59%
SK-MEL-28; Log10 Concentration −5.0
  Percent Growth: −87%
SK-MEL-28; Log10 Concentration −6.0
  Percent Growth: 63%
SK-MEL-28; Log10 Concentration −7.0
  Percent Growth: 83%
SK-MEL-28; Log10 Concentration −8.0
  Percent Growth: 94%

## N=C(N)Nc1ccc(-n2nc(C(F)(F)F)cc2-c2ccc3c(ccc4ccccc43)c2)cc1 [Compound 71, 4-[5-(2-Phenanthrenyl)-3-(trifluoromethyl)-1H-pyrazol-1-yl]-phenyl-guanidine]
phospho-473Ser Akt
  phospho-Akt level: substantial decrease in the phospho-Akt level
SK-MEL-5
  GI50: 2220 nM
  TGI: 4.07E−06
SK-MEL-5; Log10 Concentration −4.0
  Mean Optical Densities: 0.363
  Percent Growth: −34%
SK-MEL-5; Log10 Concentration −5.0
  Mean Optical Densities: 0.143
  Percent Growth: −74%
SK-MEL-5; Log10 Concentration −6.0
  Mean Optical Densities: 1.812
  Percent Growth: 116%
SK-MEL-5; Log10 Concentration −7.0
  Mean Optical Densities: 1.762
  Percent Growth: 111%
SK-MEL-5; Log10 Concentration −8.0
  Mean Optical Densities: 1.611
  Percent Growth: 97%
COLO 205
  GI50: 1360 nM
  TGI: 2.69E−06
COLO 205; Log10 Concentration −4.0
  Mean Optical Densities: 0.151
  Percent Growth: −32%
COLO 205; Log10 Concentration −5.0
  Mean Optical Densities: 0.009
  Percent Growth: −96%
COLO 205; Log10 Concentration −6.0
  Mean Optical Densities: 0.930
  Percent Growth: 73%
COLO 205; Log10 Concentration −7.0
  Mean Optical Densities: 1.028
  Percent Growth: 83%
COLO 205; Log10 Concentration −8.0
  Mean Optical Densities: 1.146
  Percent Growth: 95%
SK-MEL-2
  GI50: 1570 nM
  TGI: 2.91E−06
SK-MEL-2; Log10 Concentration −4.0
  Mean Optical Densities: 0.324
  Percent Growth: −29%
SK-MEL-2; Log10 Concentration −5.0
  Mean Optical Densities: −0.010
  Percent Growth: −100%
SK-MEL-2; Log10 Concentration −6.0
  Mean Optical Densities: 0.780
  Percent Growth: 87%
SK-MEL-2; Log10 Concentration −7.0
  Mean Optical Densities: 0.819
  Percent Growth: 97%
SK-MEL-2; Log10 Concentration −8.0
  Mean Optical Densities: 0.775
  Percent Growth: 85%
M14
  GI50: 1480 nM
  TGI: 2.80E−06
M14; Log10 Concentration −4.0
  Mean Optical Densities: 0.210
  Percent Growth: −33%
M14; Log10 Concentration −5.0
  Mean Optical Densities: −0.004
  Percent Growth: −100%
M14; Log10 Concentration −6.0
  Mean Optical Densities: 0.816
  Percent Growth: 81%
M14; Log10 Concentration −7.0
  Mean Optical Densities: 0.823
  Percent Growth: 82%
M14; Log10 Concentration −8.0
  Mean Optical Densities: 0.772
  Percent Growth: 74%
LOX IMVI
  GI50: 1340 nM
  TGI: 2.65E−06
LOX IMVI; Log10 Concentration −4.0
  Mean Optical Densities: 0.165
  Percent Growth: −53%
LOX IMVI; Log10 Concentration −5.0
  Mean Optical Densities: 0.008
  Percent Growth: −98%
LOX IMVI; Log10 Concentration −6.0
  Mean Optical Densities: 0.935
  Percent Growth: 72%
LOX IMVI; Log10 Concentration −7.0
  Mean Optical Densities: 1.033
  Percent Growth: 84%
LOX IMVI; Log10 Concentration −8.0
  Mean Optical Densities: 0.948
  Percent Growth: 73%
LOX IMVI; read-out: LC50 (the source's name)
  CC50: 5220 nM
SK-MEL-28
  GI50: 1560 nM
  TGI: 2.89E−06
SK-MEL-28; Log10 Concentration −4.0
  Mean Optical Densities: 0.248
  Percent Growth: −53%
SK-MEL-28; Log10 Concentration −5.0
  Mean Optical Densities: −0.002
  Percent Growth: −100%
SK-MEL-28; Log10 Concentration −6.0
  Mean Optical Densities: 1.367
  Percent Growth: 86%
SK-MEL-28; Log10 Concentration −7.0
  Mean Optical Densities: 1.408
  Percent Growth: 90%
SK-MEL-28; Log10 Concentration −8.0
  Mean Optical Densities: 1.439
  Percent Growth: 93%

Source: patent US8541460B2, “PDK-1/Akt signaling inhibitors” (The Ohio State University, priority 2003, dated 2013)
